Assays:
AMPK α2/α1 CAT β1γ1 = molecular target: T1, AMPK α2/α1 CAT β1γ1 (Homo sapiens, UniProt P54619+P54646, A116S/A126G/A242I/C200S/E112D/E217D/E235Q/E34K/F89I/G228D/H108N/I233T/I32V/K62R/L254M/M114K/M246K/Q36E/R227C/R239P/T243S/T87S/V111L/V17I/V230I); assay: Chimeric AMPK complex activation assay; type: biochemical; conditions: complex expressed in E. coli; read-out: EC50, allosteric activation
T1 construct: 6×His (N); made in house; host or cells: E. coli (tricistronic pET15-b construct)
Source text: (§1) Figure 3 Regulatory Elements within the α-Linker Determine the Isoform Specificity of C2 (A) Diagram illustrating the domain organization of the AMPKα subunit with a global pairwise alignment of a section of the α-linker of human AMPKα1 (Q13131) and AMPKα2 (P54646). Regulatory elements in the α-linker are highlighted, including the α-hook as originally defined by [Xiao et al. (2011)] (pink) and the reassigned sequence (also known as α-RIM2) shaded in orange. The secondary structure for α1 is derived from PDB ID 2Y94. The table summarizes the sequences of the α1/α2 chimeras produced to examine the role of various structural elements in the activation of α2β1γ1 complexes by C2. (B–E) Human AMPKα1/α2 chimeras (defined in A) were generated as complexes with β1γ1 in E. coli. Purified active complexes were assayed for the activation of phosphotransferase activity by AMP and C2, as described in Figure 1. Results (line graphs) are expressed as the fold increase in activity relative to reactions performed in the absence of compound and represent the mean ± SD of three independent experiments. Complexes were also assayed for protection against dephosphorylation and inactivation by PP2Cα, as described in Figures 2C and 2D. Results (bar charts) are expressed as the mean (percentage of control) ± SD of three independent experiments. Representative blots of pT172 and total AMPKα are shown below the bar charts. TEXT PRINTED IN THE PICTURE: (B) C2: AMPK211 - α2/α1 CAT: EC50: ND | (B) AMP: AMPK211 - α2/α1 CAT: EC50: 1.3 ± 0.2 μM | (C) C2: AMPK211 - α2/α1 REG: EC50: 0.009 ± 0.0006 μM | (C) AMP: AMPK211 - α2/α1 REG: EC50: 3.1 ± 0.3 μM | (D) C2: AMPK211 - α2/α1 HOOK: EC50: ND | (D) AMP: AMPK211 - α2/α1 HOOK: EC50: 1.4 ± 0.2 μM | (E) C2: AMPK211 + α2/α1 LOOP: EC50: 0.013 ± 0.001 μM | (E) AMP: AMPK211 + α2/α1 LOOP: EC50: 2.7 ± 0.3 μM […]
(§2) AMPK phosphotransferase activity was assayed in reactions (50 μl) containing 50 mM HEPES, pH 7.4, 10 mM MgCl2, 0.1 mM EGTA, 1 mM DTT, 0.01% BRIJ-35, 100 μM [γ-^32P]ATP (∼250 CPM⋅pmol^−1) and 200 μM AMARA (AMARAASAAALARRR). Reactions were started by the addition of AMPK (5 mU), incubated for 20 min at 30°C and quenched by spotting onto P81 and immersion in 75 mM H3PO4. Washed filters were dried and [^32P] incorporation determined by Cherenkov counting. AMPK activity in cell extracts was determined by immunoprecipitation with AMPKα1 or AMPKα2 antibodies from 50 μg material, as previously described ([Hunter et al., 2011]). […]

AMPK α2/α1 HOOK β1γ1 = molecular target: T2, AMPK α2/α1 HOOK β1γ1 (Homo sapiens, UniProt P54619+P54646, A386E/C382H/K379R/P383T); assay: Chimeric AMPK complex activation assay; type: biochemical; conditions: complex expressed in E. coli; read-out: EC50, allosteric activation
T2 construct: 6×His (N); made in house; host or cells: E. coli (tricistronic pET15-b construct)
T2 sequence (P54646 whole entry K379R/C382H/P383T/A386E): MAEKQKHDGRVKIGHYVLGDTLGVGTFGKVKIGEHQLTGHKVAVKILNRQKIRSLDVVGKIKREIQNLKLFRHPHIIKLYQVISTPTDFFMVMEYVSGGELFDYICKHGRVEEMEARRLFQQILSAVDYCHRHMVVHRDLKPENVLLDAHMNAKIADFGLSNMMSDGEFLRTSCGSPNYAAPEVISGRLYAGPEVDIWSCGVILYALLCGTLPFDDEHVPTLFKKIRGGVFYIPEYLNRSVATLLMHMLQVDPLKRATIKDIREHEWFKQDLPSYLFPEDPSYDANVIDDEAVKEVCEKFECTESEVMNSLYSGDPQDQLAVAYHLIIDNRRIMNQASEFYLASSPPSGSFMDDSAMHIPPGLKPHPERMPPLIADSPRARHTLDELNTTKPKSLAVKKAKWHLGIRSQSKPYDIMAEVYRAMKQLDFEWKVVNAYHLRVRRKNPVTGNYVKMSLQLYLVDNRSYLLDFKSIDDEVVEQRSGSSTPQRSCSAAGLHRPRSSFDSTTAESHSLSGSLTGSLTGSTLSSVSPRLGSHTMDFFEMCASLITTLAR
T2 sequence (Q9Y478 whole entry partner): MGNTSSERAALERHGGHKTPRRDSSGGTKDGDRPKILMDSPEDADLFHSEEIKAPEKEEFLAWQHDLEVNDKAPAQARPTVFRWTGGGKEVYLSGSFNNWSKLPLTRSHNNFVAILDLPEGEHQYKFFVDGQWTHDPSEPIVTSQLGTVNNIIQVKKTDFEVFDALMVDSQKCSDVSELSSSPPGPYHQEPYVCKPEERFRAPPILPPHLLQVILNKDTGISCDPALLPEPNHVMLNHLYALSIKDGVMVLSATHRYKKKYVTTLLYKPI
T2 sequence (P54619 whole entry): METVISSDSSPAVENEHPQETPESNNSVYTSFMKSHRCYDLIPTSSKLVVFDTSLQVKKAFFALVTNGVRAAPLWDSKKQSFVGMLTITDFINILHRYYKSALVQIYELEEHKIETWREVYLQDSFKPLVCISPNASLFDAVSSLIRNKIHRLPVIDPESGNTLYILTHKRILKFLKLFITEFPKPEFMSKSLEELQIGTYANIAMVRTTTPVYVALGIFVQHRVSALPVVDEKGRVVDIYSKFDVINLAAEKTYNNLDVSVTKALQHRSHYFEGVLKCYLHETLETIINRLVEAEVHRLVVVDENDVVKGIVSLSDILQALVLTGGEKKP
Source text: as §1, §2

T1 sequence (P54619 whole entry, stated change not applied): as the sequence (P54619 whole entry) above
T1 sequence (Q9Y478 whole entry, further chain): as the sequence (Q9Y478 whole entry partner) above
T1 sequence (P54646 other isoform, or with tags, fused parts or gaps with the stated changes): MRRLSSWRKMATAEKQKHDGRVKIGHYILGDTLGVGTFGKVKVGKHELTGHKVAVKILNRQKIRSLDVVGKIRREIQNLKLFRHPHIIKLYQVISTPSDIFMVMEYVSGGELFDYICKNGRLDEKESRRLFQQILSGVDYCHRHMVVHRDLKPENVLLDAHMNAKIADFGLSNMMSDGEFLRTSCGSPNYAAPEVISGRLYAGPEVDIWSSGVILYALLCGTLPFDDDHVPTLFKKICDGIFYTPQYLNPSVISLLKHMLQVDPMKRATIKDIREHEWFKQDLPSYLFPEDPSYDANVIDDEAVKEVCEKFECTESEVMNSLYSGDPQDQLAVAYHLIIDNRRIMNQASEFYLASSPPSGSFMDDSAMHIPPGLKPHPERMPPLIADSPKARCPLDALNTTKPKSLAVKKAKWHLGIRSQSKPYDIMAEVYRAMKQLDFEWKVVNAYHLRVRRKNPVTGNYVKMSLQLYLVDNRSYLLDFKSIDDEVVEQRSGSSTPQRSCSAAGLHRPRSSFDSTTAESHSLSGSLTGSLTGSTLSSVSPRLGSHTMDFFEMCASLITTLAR

`Nc1ncnc2c1ncn2[C@@H]1O[C@H](COP(=O)(O)O)[C@@H](O)[C@H]1O` [AMP, reference compound] was tested, and the EC50 (AMPK α2/α1 CAT β1γ1) was 1300 ± 200 nM and the EC50 (AMPK α2/α1 HOOK β1γ1) was 1400 ± 200 nM.
